Reference: patent US11471674B2, “Electroosmotic convection-enhanced delivery system” (University of Pittsburgh—Of the Commonwealth System of …, priority 2012, dated 2022)

Key:
[1] = In vivo electrokinetic infusion via open tube catheter, volume of distribution; conditions: rat thalamus, 25.0 μA for 45 minutes
Experimental: Male Sprague-Dawley rats, with weights ranging from 260 to 290 g, were anesthetized with isoflurane, and wrapped in a 37° C. homeothermic blanket. An incisor bar was set at 0 mm at the interaural line. Rats underwent aseptic stereotactic surgery, whereby bilateral craniotomies were made to position an infusion catheter and counter catheter into the thalami bilaterally (from bregma: 4.0 mm lateral, 1.3 mm posterior, and 5.0 mm below the dura) for volumetric analysis. The capillaries were also implanted into the hippocampi bilaterally (from bregma: 4.0 mm lateral, 1.3 mm posterior, and 2.5 mm below the dura). […]
(§1) After the electrokinetic infusion period, the rats underwent rapid transcardial perfusion with 250 mL of 8% cold paraformaldehyde in PBS. […] Vibratome sectioning was quantitative, with no discarded tissue between slices with a visible fluorophore spot. […] The 300 μm thick coronal slices were mounted onto glass slides and imaged with an inverted fluorescence microscope. Image sequences were acquired and the fluorescent intensity was measured.
The volumes of distribution from the infusions were determined by evaluating the fluorescence intensities amongst the coronal tissue slices. The overall maximum fluorescence intensity (I0) at the infusion catheter implantation site was determined for each rat. […]

[2] = Electrophoretic mobility of infusates; format: physicochemical; conditions: N = 3
Excerpt: As noted above, three solutes of varying molecular weight and electrophoretic mobilities were utilized for in vivo infusions. BODIPY labeled 10 kDa dextran (B10) and TR70 were selected because of their dissimilar molecular weights, their ability to be resolved spectroscopically, and their small electrophoretic mobilities, as shown in Table 1 below (Vd at 10% of I0 calculated as in paragraph 25). The electrophoretic mobility is the ratio of the velocity that a molecule adopts in the presence of an electric field of a particular magnitude. For comparison, the electroosmotic mobility is the velocity that the fluid adopts in the presence of an electric field. The […] is directly proportional to the magnitude of the zeta potential governing the electroosmotic flow which we estimate to be −22.8 mV (Guy, Y. et al., “Determination of zeta-potential in rat organotypic hippocampal cultures.” Biophysical Journal, (2008) 94: 4561-9; Guy et al., “Determination of Zeta-Potential and Tortuosity in Rat Organotypic Hippocampal Cultures from Electroosmotic Velocity Measurements under Feedback Control.” Anal. Chem. (2009) 81:3001-7, both of which are hereby incorporated by reference). The electroosmotic mobility of the extracellular fluid in brain is 1.7×10^−8 m^2/Vs. This is much larger than the electrophoretic mobilities of the two fluorescent dextrans in Table 1. […]

[3] = In vivo electrokinetic infusion via hollow fiber probe, volume of distribution; conditions: rat striatum, 25 μA, 45 minutes
Excerpt: In the experiments described below, the distal end of the hollow fiber catheter was a hollow fiber having a 280 μm inside and 360 μm outside diameter, and a length of 3-4 mm (724). A 10- or 15-cm long fused silica catheter ([…] and 670 μm outside diameters, 720) directs fluid to the hollow fiber probe. The 100 μm inside diameter infusion catheter 720 was filled with the fluorophore solution of interest, as detailed below, in a glucose-free HEPES-buffered salt solution (GF-HBSS), containing in mM: 143.4 NaCl, 5 HEPES, 5.4 KCl, 1.2 MgSO4, 1.2 NaH2PO4, and 2.0 CaCl2. The probe was placed in a vial containing the same solution (704) through a septum. […]
as §1, with “phosphate buffer solution.” for “PBS.”, “200” for “300”, “microscope.” for “microscope. Image sequences were acquired and the fluorescent intensity was measured.”
The volumes of distribution from the infusions were determined by measuring the fluorescence intensities in each coronal slice. The fluorescent area in each image was determined by counting pixels above a threshold value dictated by the noise level in the background (nonfluorescent portion of the image). […]

[Ru+2].c1ccc(-c2ccccn2)nc1.c1ccc(-c2ccccn2)nc1.c1ccc(-c2ccccn2)nc1 [Ru(bpy)3^2+, tris(2,2′-bipyridyl)ruthenium(II)]
Vd at 10% of I0 ([1]; calculated): 260 µL
Vd at 25% of I0 ([1]; open tube catheter, mean±SEM): 13.0 ± 2.0 µL
Electrophoretic Mobility (μep) [2]: 25.86 ± 0.02 10^−9 m^2/Vs
volume of distribution (fluorescent volume) [3]: 9.0 µL
